The values that follow come from patent publication US20260070945A1, “MACROCYCLIC IMMUNOMODULATORS” (Bristol-Myers Squibb Company, priority 2022, published 2026).

*1 amine or outer side, *2 acyl side, *3 side chain or, on linkers, in order; H or OH if unused. Where a SMILES comes first, the peptide text is derived from it. Bridges are numbered along the chain shown (N, C = ends). [ ]: non-standard residue; d: D form. The star is where a group is joined. ξ: configuration not given here. Phe(4-CF3) = N[C@@H](Cc1ccc(C(F)(F)F)cc1)C(=O)O; Phe(4-COOH) = N[C@@H](Cc1ccc(C(=O)O)cc1)C(=O)O; Bip = N[C@@H](Cc1ccc(-c2ccccc2)cc1)C(=O)O; Phe(4-NH2) = Nc1ccc(C[C@H](N)C(=O)O)cc1; NH(CH2)14COOH = O=C(O)CCCCCCCCCCCCCCN*; Phe(3-Me) = Cc1cccc(C[C@H](N)C(=O)O)c1; γGlu = O=C(O)[C@H](CCC(=O)[*:2])N[*:1]; Val(3-OH) = CC(C)(O)[C@H](N)C(=O)O; aIle = CC[C@@H](C)[C@H](N)C(=O)O; 4Pal = N[C@@H](Cc1ccncc1)C(=O)O; Aad = N[C@@H](CCCC(=O)O)C(=O)O; Cha = N[C@@H](CC1CCCCC1)C(=O)O; Cit = NC(=O)NCCC[C@H](N)C(=O)O; Thr(3ξ) = CC(O)[C@H](N)C(=O)O; 12Ado = NCCCCCCCCCCCC(=O)O; hSer = N[C@@H](CCO)C(=O)O; Carboxymethyl = O=C(O)C*; NMeA = CN[C@@H](C)C(=O)O; Orn = NCCC[C@H](N)C(=O)O; Aun = NCCCCCCCCCCC(=O)O; Dab = NCC[C@H](N)C(=O)O; Dap = NC[C@H](N)C(=O)O; AEEA = NCCOCCOCC(=O)O

In one experiment the target is T1, PD-1/PD-L1 interaction (PE-labeled human PD-L1-Ig binding to Jurkat cell line over-expressing human PD-1) (Homo sapiens, UniProt Q15116).
T1 construct: expressed in transfected cells; host or cells: Jurkat
T1 sequence (Q15116 25-288): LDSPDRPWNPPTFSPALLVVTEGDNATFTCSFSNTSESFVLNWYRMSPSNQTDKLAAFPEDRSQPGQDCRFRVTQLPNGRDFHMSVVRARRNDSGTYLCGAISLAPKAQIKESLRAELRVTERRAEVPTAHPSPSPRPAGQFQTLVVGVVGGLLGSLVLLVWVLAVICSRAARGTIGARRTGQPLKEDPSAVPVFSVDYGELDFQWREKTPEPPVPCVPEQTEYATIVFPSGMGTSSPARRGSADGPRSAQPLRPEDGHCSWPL
The experiment can be described thus: Jurkat-PD-1 Cell Binding High-Content Screening Assay (CBA). As to conditions: Jurkat-hPD-1 cells, PE-labeled PD-L1-Ig 20 nM final; read-out: Jurkat HPD1 PDL1 IC50. The procedure, abridged:
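High-content imaging read-out of PE-PD-L1-Ig binding (20 nM final, 1 h) to Jurkat-hPD-1 cells, after 2 h compound exposure at 37 °C in DMEM with 10% FCS. Nuclei counterstained with Hoechst 33342 after paraformaldehyde fixation.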
`CC(C)C[C@H]1NC(=O)[C@H](C)N(C)C(=O)[C@H](Cc2ccc(OCC(=O)O)cc2)NC(=O)[C@H](Cc2ccc(-c3ccccc3)cc2)NC(=O)[C@H](Cc2ccc(OCC(=O)O)cc2)NC(=O)[C@H](Cc2c[nH]c3ccccc23)NC(=O)[C@H](CC(=O)O)NC(=O)[C@H](Cc2ccc(OCC(=O)O)cc2)NC(=O)[C@H]([C@@H](C)O)NC(=O)CSC[C@@H](C(=O)N[C@@H](CCN)C(=O)NCCOCCOCC(=O)NCCCCCCCCCCC(=O)O)NC(=O)[C@H](CCCN)NC(=O)[C@H](C(C)C)NC(=O)[C@H](CC2CCCCC2)NC(=O)[C@H](CC(N)=O)NC1=O` [Example 1384] ({CH2CO}-TY(Carboxymethyl)DWY(Carboxymethyl)[Bip]Y(Carboxymethyl)[NMeA][dL]N[Cha]V[Orn]C[Dab][AEEA][Aun]-OH; thioether N-14): the IC50 turned out to be 193 nM.

`CC[C@@H](C)[C@@H]1NC(=O)[C@H](Cc2ccc(-c3ccccc3)cc2)NC(=O)[C@H](C(C)C)NC(=O)[C@H](Cc2c[nH]c3ccccc23)NC(=O)[C@H](CC(=O)O)NC(=O)[C@H](Cc2ccc(C(=O)O)cc2)NC(=O)[C@H](Cc2ccc(OCC(=O)O)cc2)NC(=O)CSC[C@@H](C(=O)N[C@@H](CC(N)=O)C(=O)NCCOCCOCC(=O)N[C@@H](CCC(=O)NCCOCCOCC(=O)N[C@@H](CCC(=O)NCCOCCOCC(=O)N[C@@H](CCCN)C(=O)NCCCCCCCCCCC(=O)O)C(=O)O)C(=O)O)NC(=O)[C@H](CO)NC(=O)[C@H](C(C)C)NC(=O)[C@H](CC2CCCCC2)NC(=O)[C@H](CC(N)=O)NC(=O)[C@@H](CC(C)C)NC(=O)[C@H](C)N(C)C1=O` [Example 2021] ({CH2CO}-Y(Carboxymethyl)[Phe(4-COOH)]DWV[Bip][aIle][NMeA][dL]N[Cha]VSCN[AEEA][γGlu][AEEA][γGlu][AEEA][Orn][Aun]-OH; thioether N-14): the 50% inhibitory concentration (IC50) was 48.9 nM.

On to `Cc1cccc(C[C@@H]2NC(=O)[C@H](CC(=O)O)NC(=O)[C@H](Cc3c[nH]cn3)NC(=O)[C@H](Cc3ccc(OCC(=O)O)cc3)NC(=O)CSC[C@@H](C(=O)N[C@@H](CCN)C(=O)NCCCCCCCCCCC(=O)O)NC(=O)[C@H](CCCC(=O)O)NC(=O)[C@H](C(C)C)NC(=O)[C@H](CC3CCCCC3)NC(=O)[C@H](CCN)NC(=O)[C@@H](CC(C)C)NC(=O)[C@H](C)N(C)C(=O)[C@H](C(C)C)NC(=O)[C@H](Cc3ccc(-c4ccccc4)cc3)NC(=O)[C@H](C(C)C)NC2=O)c1` [Example 2215] ({CH2CO}-Y(Carboxymethyl)HD[Phe(3-Me)]V[Bip]V[NMeA][dL][Dab][Cha]V[Aad]C[Dab][Aun]-OH; thioether N-14), for which the IC50 was 9.2 nM.

Regarding `Cc1cccc(C[C@@H]2NC(=O)[C@H](CC(=O)O)NC(=O)[C@H](Cc3ccncc3)NC(=O)[C@H](Cc3ccc(OCC(=O)O)cc3)NC(=O)CSC[C@@H](C(=O)N[C@@H](CCN)C(=O)NCCOCCOCC(=O)NCCCCCCCCCCC(=O)O)NC(=O)[C@H](CCCN)NC(=O)[C@H](C(C)C)NC(=O)[C@H](CC3CCCCC3)NC(=O)[C@H](CC(N)=O)NC(=O)[C@@H](CC(C)C)NC(=O)[C@H](C)N(C)C(=O)[C@H](Cc3ccc(OCC(=O)O)cc3)NC(=O)[C@H](Cc3ccc(-c4ccccc4)cc3)NC(=O)[C@H](Cc3ccc(OCC(=O)O)cc3)NC2=O)c1` [Example 1359] ({CH2CO}-Y(Carboxymethyl)[4Pal]D[Phe(3-Me)]Y(Carboxymethyl)[Bip]Y(Carboxymethyl)[NMeA][dL]N[Cha]V[Orn]C[Dab][AEEA][Aun]-OH; thioether N-14), the IC50 is 23.2 nM.

In the case of `Cc1cccc(C[C@@H]2NC(=O)[C@H](CC(=O)O)NC(=O)[C@H](Cc3ccc(OCC(=O)O)cc3)NC(=O)[C@H](CN)NC(=O)CSC[C@@H](C(=O)N[C@@H](CCN)C(=O)NCCCCCCCCCCC(=O)O)NC(=O)[C@H](CO)NC(=O)[C@H](C(C)C)NC(=O)[C@H](CC3CCCCC3)NC(=O)[C@H](CCN)NC(=O)[C@@H](CC(C)C)NC(=O)[C@H](C)N(C)C(=O)[C@H](Cc3ccc(O)cc3)NC(=O)[C@H](Cc3ccc(-c4ccccc4)cc3)NC(=O)[C@H](Cc3ccc(OCC(=O)O)cc3)NC2=O)c1` [Example 1259] ({CH2CO}-[Dap]Y(Carboxymethyl)D[Phe(3-Me)]Y(Carboxymethyl)[Bip]Y[NMeA][dL][Dab][Cha]VSC[Dab][Aun]-OH; thioether N-14), the IC50 amounted to 14.9 nM.

Turning to `CC(C)C[C@@H]1NC(=O)[C@H](Cc2c[nH]c3ccccc23)NC(=O)[C@H](CC(=O)O)NC(=O)[C@H](Cc2ccc(C(=O)O)cc2)NC(=O)[C@H](Cc2ccc(OCC(=O)O)cc2)NC(=O)CSC[C@@H](C(=O)NCCOCCOCC(=O)NCCCCCCCCCCC(=O)O)NC(=O)[C@H](CCO)NC(=O)[C@H](C(C)C)NC(=O)[C@H](CC2CCCCC2)NC(=O)[C@H](CCN)NC(=O)[C@@H](CC(C)C)NC(=O)[C@H](C)N(C)C(=O)[C@H](CCC(N)=O)NC(=O)[C@H](Cc2ccc(-c3ccccc3)cc2)NC1=O` [Example 2227] ({CH2CO}-Y(Carboxymethyl)[Phe(4-COOH)]DWL[Bip]Q[NMeA][dL][Dab][Cha]V[hSer]C[AEEA][Aun]-OH; thioether N-14), the half-inhibitory concentration (IC50) turned out to be 34 nM.

As to `Cc1cccc(C[C@@H]2NC(=O)[C@H](CC(=O)O)NC(=O)[C@H](Cc3ccc(C(=O)O)cc3)NC(=O)[C@H](Cc3ccc(OCC(=O)O)cc3)NC(=O)CSC[C@@H](C(=O)NCCCCCCCCCCC(=O)O)NC(=O)[C@H](C(C)O)NC(=O)[C@H](C(C)C)NC(=O)[C@H](CC3CCCCC3)NC(=O)[C@H](CCN)NC(=O)[C@@H](CC(C)C)NC(=O)[C@H](C)N(C)C(=O)[C@H](Cc3ccc(O)cc3)NC(=O)[C@H](Cc3ccc(-c4ccccc4)cc3)NC(=O)[C@H](CC(C)C)NC2=O)c1` (stereo partly drawn) [Example 2329] ({CH2CO}-Y(Carboxymethyl)[Phe(4-COOH)]D[Phe(3-Me)]L[Bip]Y[NMeA][dL][Dab][Cha]V[Thr(3ξ)]C[Aun]-OH; thioether N-14), the 50% inhibitory concentration (IC50) is 195 nM.

Regarding `Cc1cccc(C[C@@H]2NC(=O)[C@H](CC(=O)O)NC(=O)[C@H](Cc3ccc(OCC(=O)O)cc3)NC(=O)[C@H](CCN)NC(=O)CSC[C@@H](C(=O)N[C@@H](CCN)C(=O)NCCCCCCCCCCC(=O)O)NC(=O)[C@H](CO)NC(=O)[C@H](C(C)(C)O)NC(=O)[C@H](CC3CCCCC3)NC(=O)[C@H](CCN)NC(=O)[C@@H](CC(C)C)NC(=O)[C@H](C)N(C)C(=O)[C@H](Cc3ccc(OCC(=O)O)cc3)NC(=O)[C@H](Cc3ccc(-c4ccccc4)cc3)NC(=O)[C@H](Cc3ccc(N)cc3)NC2=O)c1` [Example 1307] ({CH2CO}-[Dab]Y(Carboxymethyl)D[Phe(3-Me)][Phe(4-NH2)][Bip]Y(Carboxymethyl)[NMeA][dL][Dab][Cha][Val(3-OH)]SC[Dab][Aun]-OH; thioether N-14), the IC50 was found to be 41.3 nM.

Take `CC(C)C[C@@H]1NC(=O)[C@H](Cc2c[nH]c3ccccc23)NC(=O)[C@H](CC(=O)O)NC(=O)[C@H](Cc2ccncc2)NC(=O)[C@H](Cc2ccc(OCC(=O)O)cc2)NC(=O)CSC[C@@H](C(=O)N[C@@H](CCCN)C(=O)NCCOCCOCC(=O)NCCCCCCCCCCC(=O)O)NC(=O)[C@H](CCCNC(N)=O)NC(=O)[C@H](C(C)C)NC(=O)[C@H](CC2CCCCC2)NC(=O)[C@H](CN)NC(=O)[C@@H](CC(C)C)NC(=O)[C@H](C)N(C)C(=O)[C@H](C(C)C)NC(=O)[C@H](Cc2ccc(-c3ccccc3)cc2)NC1=O` [Example 2166] ({CH2CO}-Y(Carboxymethyl)[4Pal]DWL[Bip]V[NMeA][dL][Dap][Cha]V[Cit]C[Orn][AEEA][Aun]-OH; thioether N-14): the IC50 was 24.7 nM.

Still in this experiment, the particulars now being: PE-labeled PD-L1-Ig 20 nM final, Jurkat-hPD-1 cells; read-out: Jurkat HPD1 PDL1 IC50.
As for `Cc1cccc(C[C@@H]2NC(=O)[C@H](CC(=O)O)NC(=O)[C@H](Cc3ccc(OCC(=O)O)cc3)NC(=O)[C@H]([C@@H](C)O)NC(=O)CSC[C@@H](C(=O)N[C@@H](CCN)C(=O)NCCOCCOCC(=O)NCCCCCCCCCCCC(=O)O)NC(=O)[C@H](CCC(=O)O)NC(=O)[C@H](C(C)C)NC(=O)[C@H](CC3CCCCC3)NC(=O)[C@H](CCN)NC(=O)[C@@H](CC(C)C)NC(=O)[C@H](C)N(C)C(=O)[C@H](Cc3ccc(O)cc3)NC(=O)[C@H](Cc3ccc(-c4ccccc4)cc3)NC(=O)[C@H](Cc3ccc(OCC(=O)O)cc3)NC2=O)c1` [Example 2665] ({CH2CO}-TY(Carboxymethyl)D[Phe(3-Me)]Y(Carboxymethyl)[Bip]Y[NMeA][dL][Dab][Cha]VEC[Dab][AEEA][12Ado]-OH; thioether N-14), the half-maximal inhibitory concentration (IC50) turned out to be 1.2 nM.

For the compound `CC(C)C[C@H]1NC(=O)[C@H](C)N(C)C(=O)[C@H](C(C)C)NC(=O)[C@H](Cc2ccc(-c3ccccc3)cc2)NC(=O)[C@H](C(C)C)NC(=O)[C@H](Cc2c[nH]c3ccccc23)NC(=O)[C@H](CC(=O)O)NC(=O)[C@H](Cc2ccc(OCC(=O)O)cc2)NC(=O)[C@H](Cc2ccc(OCC(=O)O)cc2)NC(=O)CSC[C@@H](C(=O)NCCOCCOCC(=O)NCCCCCCCCCCC(=O)O)NC(=O)[C@H](CO)NC(=O)[C@H](C(C)(C)O)NC(=O)[C@H](CC2CCCCC2)NC(=O)[C@H](CCN)NC1=O` [Example 2455] ({CH2CO}-Y(Carboxymethyl)Y(Carboxymethyl)DWV[Bip]V[NMeA][dL][Dab][Cha][Val(3-OH)]SC[AEEA][Aun]-OH; thioether N-14), the IC50 came to 8.4 nM.

For the compound `CC(=O)NCCCC[C@@H]1NC(=O)[C@H](C(C)(C)O)NC(=O)[C@H](CC2CCCCC2)NC(=O)[C@H](CCN)NC(=O)[C@@H](CC(C)C)NC(=O)[C@H](C)N(C)C(=O)[C@H](CCC(N)=O)NC(=O)[C@H](Cc2ccc(-c3ccccc3)cc2)NC(=O)[C@H](Cc2ccc(C(F)(F)F)cc2)NC(=O)[C@H](Cc2cccc(C)c2)NC(=O)[C@H](CC(=O)O)NC(=O)[C@H](Cc2ccc(OCC(=O)O)cc2)NC(=O)[C@H](Cc2ccc(OCC(=O)O)cc2)NC(=O)CSC[C@@H](C(=O)N[C@@H](CCN)C(=O)NCCCCCCCCCCCCCCC(=O)O)NC1=O` [Example 2618] ({CH2CO}-Y(Carboxymethyl)Y(Carboxymethyl)D[Phe(3-Me)][Phe(4-CF3)][Bip]Q[NMeA][dL][Dab][Cha][Val(3-OH)]K(Ac)C[Dab]-{NH(CH2)14COOH}; thioether N-14), the IC50 was 210 nM.
